Laboratory results: ChEMBL document CHEMBL1201862, “PubChem BioAssay data set” (2004)
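Each compound was tested at five concentrations against cells in 96-well plates for 48 hours. GI50 = concentration required for 50% inhibition of growth.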 Calls of active or inactive are those of the source. Cut-off read from the data, not from the text of the source: active = GI50 up to about 1.1 µM and inactive = higher.

Columns and labels:
Assay in all cases: NCI anticancer screen, dose series, 48 h
[1] = tested on: UACC-257
[2] = tested on: A498
[3] = tested on: SF-268
[4] = tested on: CAKI-1
[5] = tested on: T47D
[6] = tested on: NCI-H23
[7] = tested on: MDA-MB-231
[8] = tested on: NCI/ADR-RES
[9] = tested on: SF-295
[10] = tested on: HL-60
[11] = tested on: IGROV-1
[12] = tested on: TK-10
[13] = tested on: RXF 393
[14] = tested on: ACHN
[15] = tested on: OVCAR-5
[16] = tested on: COLO 205
[17] = tested on: NCI-H522
[18] = tested on: HCT-15
[19] = tested on: KM12
[20] = tested on: EKVX

| SMILES | GI50 [1] | GI50 [2] | GI50 [3] | GI50 [4] | GI50 [5] | GI50 [6] | GI50 [7] | GI50 [8] | GI50 [9] | GI50 [10] | GI50 [11] | GI50 [12] | GI50 [13] | GI50 [14] | GI50 [15] | GI50 [16] | GI50 [17] | GI50 [18] | GI50 [19] | GI50 [20] |
| --- | --- | --- | --- | --- | --- | --- | --- | --- | --- | --- | --- | --- | --- | --- | --- | --- | --- | --- | --- | --- |
| CCOC(=O)C1C(c2ccco2)C2(C#N)C(=N)OC1(C)C2(C#N)C#N (stereo not given) | > 100 µM (inactive) | > 100 µM (inactive) | > 100 µM (inactive) | > 100 µM (inactive) | > 100 µM (inactive) | > 100 µM (inactive) | > 100 µM (inactive) | > 100 µM (inactive) | > 100 µM (inactive) | > 10 µM (inactive) | > 100 µM (inactive) | > 100 µM (inactive) | > 100 µM (inactive) | > 100 µM (inactive) | > 100 µM (inactive) | > 100 µM (inactive) | > 100 µM (inactive) | 33.1 µM | > 100 µM (inactive) | > 100 µM (inactive) |
| O=S(=O)(c1ccc(Br)cc1)N1CCN(S(=O)(=O)c2ccc(Br)cc2)CC1 | > 100 µM (inactive) | > 100 µM (inactive) | > 100 µM (inactive) | > 100 µM (inactive) | > 100 µM (inactive) | > 100 µM (inactive) | > 100 µM (inactive) | > 100 µM (inactive) | > 100 µM (inactive) | > 100 µM (inactive) | > 100 µM (inactive) | > 100 µM (inactive) | > 100 µM (inactive) | > 100 µM (inactive) | > 100 µM (inactive) | > 100 µM (inactive) | > 100 µM (inactive) | > 100 µM | > 100 µM (inactive) | > 100 µM (inactive) |
| NNc1ncnc2cccc(Cl)c12 | > 100 µM (inactive) | > 100 µM (inactive) | > 100 µM (inactive) | > 100 µM (inactive) | > 100 µM (inactive) | > 100 µM (inactive) | > 100 µM (inactive) | > 100 µM (inactive) | > 100 µM (inactive) | > 100 µM (inactive) | > 100 µM (inactive) | > 100 µM (inactive) | > 100 µM (inactive) | > 100 µM (inactive) | > 100 µM (inactive) | > 100 µM (inactive) | > 100 µM (inactive) | > 100 µM | > 100 µM (inactive) | 17.8 µM (inactive) |
| COc1cc2cc(C(=O)N3C[C@H](CCl)c4c3cc(N)c3ccccc43)[nH]c2c(OC)c1OC | 1.6 µM (inactive) | 0.0075 µM (active) | 0.593 µM (active) | < 0.005 µM (active) | < 0.005 µM (active) | 0.005 µM (active) | 3.36 µM (inactive) | 0.00791 µM (active) | 2.61 µM (inactive) | 0.0586 µM (active) | 0.218 µM (active) | 0.005 µM (active) | 0.571 µM (active) | < 0.005 µM (active) | 0.0906 µM (active) | 0.0173 µM (active) | 0.001 µM (active) | 0.005 µM | 0.00187 µM (active) | 0.0103 µM (active) |
| COc1ccccc1OC(=O)/C=C/c1ccccc1 | 35.8 µM (inactive) | > 100 µM (inactive) | 52.1 µM (inactive) | > 100 µM (inactive) | > 100 µM (inactive) | > 100 µM (inactive) | > 100 µM (inactive) | > 100 µM (inactive) | 40.2 µM (inactive) | 64.1 µM (inactive) | > 100 µM (inactive) | 84.1 µM (inactive) | > 100 µM (inactive) | > 100 µM (inactive) | > 100 µM (inactive) | > 100 µM (inactive) | > 100 µM (inactive) | > 100 µM | > 100 µM (inactive) | > 100 µM (inactive) |
| COC(=O)/C=C(/C=C1/C(C#N)=C(N)N(c2ccc(Cl)cc2)C1(C)/C(=C\C(=O)OC)C(=O)OC)C(=O)OC (stereo not given) | 18.9 µM (inactive) | 44.8 µM (inactive) | 19.5 µM (inactive) | 22.8 µM (inactive) | 18.3 µM (inactive) | 19.2 µM (inactive) | 29.2 µM (inactive) | 16.8 µM (inactive) | 22.8 µM (inactive) | 13.7 µM (inactive) | 21.5 µM (inactive) | 29.4 µM (inactive) | 19.2 µM (inactive) | 22.6 µM (inactive) | 21.3 µM (inactive) | 15 µM (inactive) | 5.69 µM (inactive) | 18.5 µM | 17.2 µM (inactive) | 43.9 µM (inactive) |
| O=C(/C=C/c1ccccc1)CCN1CCCCC1 | 37.4 µM (inactive) | 39.2 µM (inactive) | 42.5 µM (inactive) | 87.9 µM (inactive) | 35.5 µM (inactive) | 24.8 µM (inactive) | 26 µM (inactive) | 38.8 µM (inactive) | 99.5 µM (inactive) | 29.4 µM (inactive) | 43.1 µM (inactive) | 51.3 µM (inactive) | 24.2 µM (inactive) | 84.7 µM (inactive) | > 100 µM (inactive) | 18 µM (inactive) | 21.4 µM (inactive) | 22.6 µM | 28.5 µM (inactive) | > 100 µM (inactive) |
| C/C(=N\Nc1cc(CN2CCCC2)c(-c2ccc(Cl)cc2)nn1)C(=O)O | > 100 µM (inactive) | > 100 µM (inactive) | > 100 µM (inactive) | > 100 µM (inactive) | > 100 µM (inactive) | > 100 µM (inactive) | > 100 µM (inactive) | > 100 µM (inactive) | > 100 µM (inactive) | > 100 µM (inactive) | > 100 µM (inactive) | > 100 µM (inactive) | > 100 µM (inactive) | > 100 µM (inactive) | > 100 µM (inactive) | > 100 µM (inactive) | > 100 µM (inactive) | > 100 µM | > 100 µM (inactive) | > 100 µM (inactive) |
| COC(=O)C1(Cc2ccccc2)Cc2ccccc2C1O (stereo not given) | > 100 µM (inactive) | > 100 µM (inactive) | > 100 µM (inactive) | > 100 µM (inactive) | 43.3 µM (inactive) | 63 µM (inactive) | > 100 µM (inactive) | > 100 µM (inactive) | > 100 µM (inactive) | > 100 µM (inactive) | > 100 µM (inactive) | 95.9 µM (inactive) | 50.2 µM (inactive) | > 100 µM (inactive) | > 100 µM (inactive) | > 100 µM (inactive) | 56.8 µM (inactive) | > 100 µM | > 100 µM (inactive) | 65 µM (inactive) |
| O=C1C(NCCc2cc(Br)c(O)c(Br)c2)=CC(=O)c2ncccc21 | 2.88 µM (inactive) | 4.08 µM (inactive) | 8.32 µM (inactive) | 7.29 µM (inactive) | 13.5 µM (inactive) | 0.659 µM (active) | 10.2 µM (inactive) | 9.2 µM (inactive) | 2.34 µM (inactive) | 2.32 µM (inactive) | 4.15 µM (inactive) | 17.1 µM (inactive) | 7.93 µM (inactive) | 6.38 µM (inactive) | 6.52 µM (inactive) | 5.7 µM (inactive) | 3.17 µM (inactive) | 5.79 µM | 4.43 µM (inactive) | 16.3 µM (inactive) |
| CCCC(=O)OCC(COC(=O)CCC)OC(=O)CCC [TRIBUTYRIN] | 42.2 µM (inactive) | > 100 µM (inactive) | > 100 µM (inactive) | 49.1 µM (inactive) | > 100 µM (inactive) | > 100 µM (inactive) | 45.2 µM (inactive) | 20.1 µM (inactive) | > 100 µM (inactive) | 33.3 µM (inactive) | > 100 µM (inactive) | 27.3 µM (inactive) | > 100 µM (inactive) | 96.2 µM (inactive) | 57.3 µM (inactive) | 55.6 µM (inactive) | 17.9 µM (inactive) | > 100 µM | > 100 µM (inactive) | > 100 µM (inactive) |
